The source of these data is patent US7884242B2, “N-heterocyclylphthaldiamides as insecticides” (Bayer CropScience AG, priority 2004, dated 2011).

Data set [1] in a line: log P determination by HPLC on reverse phase column, pH 2.3. The format is physicochemical. To be noted: reverse phase HPLC column (C 18), reverse phase column (C 18), pH 2.3, 43° C. As for the experimental part: The determination of the log P values given in the above table and preparation examples is carried out in accordance with EEC directive 79/831 Annex V.A8 by HPLC (High Performance Liquid Chromatography) on a reverse phase column (C 18). Temperature: 43° C. The determination is carried out under acidic conditions at pH 2.3 with 0.1% aqueous phosphoric acid and acetonitrile as eluents; linear gradient of 10% acetonitrile to 95% acetonitrile. Calibration was is carried out with unbranched alkan-2-ones (with 3 to 16 carbon atoms) of known log P values (Determination of log P values by the retention times by linear interpolation between two sequential alkanones).

Data set [2] relates to green peach aphid (Myzus persicae). The data set can be described thus: Myzus test (spray treatment). The note with it: for pest or weed control at 100 g/ha: Myzus persicae, in Brassica oleracea, 120 h, spray treatment, China cabbage slices, after 5 d, read-out: Death rate in % after 5d; for activity in Myzus test (spray treatment): statement in words. The format is in vivo. As for the experimental part:
[table] For the preparation of a suitable active compound formulation 1 part by weight of the active compound is mixed with the above amounts of solvent and emulsifier and the concentrate is diluted to the desired concentration with water containing emulsifier. China cabbage slices (Brassica pekinensis) that are infected with all stages of the green peach aphid (Myzus persicae) are sprayed with an active compound preparation at the desired concentration. After the desired time the activity in % is determined. Here 100% means that all aphids were killed; 0% means that no aphids were killed.

The test system of data set [3] is larvae of the mustard leaf beetle (Phaedon cochleariae). The data set can be described thus: Phaedon test (spray treatment). The format is in vivo. The note with it: for activity in Phaedon test (spray treatment): statement in words. On the procedure:
(§1) [table] For the preparation of a suitable active compound formulation 1 part by weight of the active compound is mixed with the above amounts of solvent and emulsifier and the concentrate is diluted to the desired concentration with water containing emulsifier. China cabbage slices (Brassica pekinensis) are sprayed with an active compound preparation of the desired composition and after drying infected with larvae of the mustard leaf beetle (Phaedon cochleariae). After the desired time the activity in % is determined. Here 100% means that all beetle larvae were killed; 0% means that no beetle larvae were killed.

The test system of data set [4] is caterpillars of the fall army worm (Spodoptera frugiperda). The data set can be described thus: Spodoptera frugiperda test (spray treatment). The format is in vivo. The note with it: for pest or weed control at 4 g/ha: Spodoptera frugiperda, 168 h, spray treatment, maize leaf sections, after 7 d, read-out: Death rate in % after 7d; for activity in Spodoptera frugiperda test (spray treatment): statement in words. On the procedure: as §1, with “Maize leaf sections (Zea mays)” for “China cabbage slices (Brassica pekinensis)”, “concentration” for “composition”, “caterpillars” for “larvae”, “fall army worm (Spodoptera frugiperda).” for “mustard leaf beetle (Phaedon cochleariae).”, “caterpillars” for “beetle larvae”

The subject of data set [5] is caterpillars of the diamond back moth (Plutella xylostella). As to the kind of experiment: Plutella test. It counts as in vivo. As for the experimental part:
[table] For the preparation of a suitable active compound formulation 1 part by weight of the active compound is mixed with the above amounts of solvent and emulsifier and the concentrate is diluted to the desired concentration with water containing emulsifier. Cabbage leaves (Brassica oleracea) are treated by dipping into the active compound preparation of the desired concentration and infected with caterpillars of the diamond back moth (Plutella xylostella) while the leaves were still wet. After the desired time the death rate is determined as %. Here 100% means that all caterpillars were killed; 0% means no caterpillars were killed.

Data set [6] relates to cotton aphid (Aphis gossypii). The data set can be described thus: Aphis gossypii test. It counts as in vivo. As for the experimental part:
[table] For the preparation of a suitable active compound formulation 1 part by weight of the active compound is mixed with the above amounts of solvent and emulsifier and the concentrate is diluted to the desired concentration with water containing emulsifier. Cotton leaves (Gossypium hirsutum) heavily infested with the cotton aphid (Aphis gossypii) are treated by immersion in the active compound preparation at the desired concentration. After the desired time the death rate in % is determined. Here 100% means that all aphids were killed; 0% means that no aphids were killed.

Where [7] appears, read: Phaedon cochleariae, 168 h, spray treatment, China cabbage slices, after 7 d, read-out: Death rate in % after 7d.

As a reminder, the chromatographic logP is lipophilicity estimated from chromatographic retention. For `Cc1nc(Cn2nc(C(F)(F)F)nc2C(F)(F)F)ccc1NC(=O)c1cccc(I)c1C(=O)N[C@@H](C)C[S+](C)[O-]` (stereo partly shown) [Example 13], the chromatographic logP in data set [1] is 2.28. For the same compound, in data set [2], the pest or weed control at 100 g/ha worked out at 100% and the “activity in Myzus test (spray treatment)” value was “good activity”. In addition, the pest or weed control at 100 g/ha in data set [3] (setting [7]) was 100%. The “activity in Phaedon test (spray treatment)” value (“activity in Phaedon test” below) in data set [3] is “good activity”. In data set [4], the pest or weed control at 4 g/ha is 100% and the “activity in Spodoptera frugiperda test (spray treatment)” value (“activity in Spodoptera frugiperda test” for short) was “good activity”. In addition, the “Death rate in % after 7d” value in data set [5] (0.16 ppm, cabbage leaves dipped, after 7 d) came out at 95%. Moreover, the “activity in Plutella test” value in data set [5] (statement in words) is “good activity”.
Turning to `Cc1nc(Cn2nc(C(F)(F)F)cc2C(F)(F)F)ccc1NC(=O)c1cccc(I)c1C(=O)N[C@@H](C)CS(C)(=O)=O` [Example 8], in data set [1], the chromatographic logP came out at 2.8. For the same compound, in data set [2], the pest or weed control at 100 g/ha worked out at 100% and the “activity in Myzus test (spray treatment)” value was “good activity”. Besides, the pest or weed control at 100 g/ha in data set [3] (setting [7]) is 100%. Besides, the “activity in Phaedon test” value in data set [3] is “good activity”. Besides, in data set [4], the pest or weed control at 4 g/ha was 100% and the “activity in Spodoptera frugiperda test” value was “good activity”.
`CSC[C@H](C)NC(=O)c1c(Cl)cccc1C(=O)Nc1ccc(Cn2nc(C(F)(F)F)cc2C(F)(F)F)nc1C` [Example 1, N^1-(6-{[3,5-bis(trifluoromethyl)-1H-pyrazol-1-yl]methyl}-2-methylpyridin-3-yl)-3-chloro-N^2-[(1S)-1-methyl-2-(methylthio)ethyl]phthalamide]: in data set [2], the pest or weed control at 100 g/ha came to 100% and the “activity in Myzus test (spray treatment)” value is “good activity”. The pest or weed control at 100 g/ha in data set [3] (setting [7]) turned out to be 100%. Further, the “activity in Phaedon test” value in data set [3] was “good activity”. In data set [4], the pest or weed control at 4 g/ha worked out at 100% and the “activity in Spodoptera frugiperda test” value is recorded as “good activity”.
As to `Cc1nc(Cn2nc(C(F)(F)F)cc2C(F)(F)F)ncc1NC(=O)c1cccc(Cl)c1C(=O)N[C@@H](C)CS(C)(=O)=O` [Example 34], the chromatographic logP in data set [1] turned out to be 2.56. For the same compound, in data set [2], the “activity in Myzus test (spray treatment)” value was “good activity”. In addition, in data set [4], the pest or weed control at 4 g/ha turned out to be 100% and the “activity in Spodoptera frugiperda test” value is on record as “good activity”.
For the compound `CSC[C@H](C)NC(=O)c1c(I)cccc1C(=O)Nc1cnc(Cn2nc(C(F)(F)F)cc2C(F)(F)F)nc1C` [Example 19], in data set [1], the chromatographic logP came to 3.55. In data set [2], the pest or weed control at 100 g/ha was determined as 100% and the “activity in Myzus test (spray treatment)” value is recorded as “good activity”. Also, in data set [4], the pest or weed control at 4 g/ha was determined as 83% and the “activity in Spodoptera frugiperda test” value is on record as “good activity”.
In turn, `Cc1nc(Cn2nc(C(F)(F)F)cc2C(F)(F)F)ccc1NC(=O)c1cccc(I)c1C(=O)N[C@@H](C)C[S+](C)[O-]` (stereo partly shown) [Example 7] showed a chromatographic logP in data set [1] of 2.42. In data set [2], the pest or weed control at 100 g/ha turned out to be 90% and the “activity in Myzus test (spray treatment)” value is “good activity”. Further, the pest or weed control at 100 g/ha in data set [3] (setting [7]) amounted to 90%. Moreover, the “activity in Phaedon test” value in data set [3] is on record as “good activity”. Besides, in data set [4], the pest or weed control at 4 g/ha worked out at 100% and the “activity in Spodoptera frugiperda test” value was “good activity”.
Turning to `Cc1nc(Cn2nc(C(F)(F)F)cc2C(F)(F)F)ccc1NC(=O)c1cccc(Cl)c1C(=O)N[C@@H](C)C[S+](C)[O-]` (stereo partly drawn) [Example 2, N^1-(6-{[3,5-bis(trifluoromethyl)-1H-pyrazol-1-yl]methyl}-2-methylpyridin-3-yl)-3-chloro-N^2-[(1S)-1-methyl-2-(methylsulphinyl)ethyl]phthalamide], in data set [2], the pest or weed control at 100 g/ha was 100% and the “activity in Myzus test (spray treatment)” value is “good activity”. Besides, the pest or weed control at 100 g/ha in data set [3] (setting [7]) was 100%. For the same compound, the “activity in Phaedon test” value in data set [3] is recorded as “good activity”. For the same compound, in data set [4], the pest or weed control at 4 g/ha amounted to 100% and the “activity in Spodoptera frugiperda test” value is “good activity”.
In turn, `Cc1nc(Cn2cc(C(F)(F)C(F)(F)F)c(C(F)(F)C(F)(F)F)n2)ncc1NC(=O)c1cccc(Cl)c1C(=O)N[C@@H](C)C[S+](C)[O-]` (stereo partly shown) [Example 65] registered a chromatographic logP in data set [1] of 2.91. For the same compound, in data set [2], the pest or weed control at 100 g/ha amounted to 100% and the “activity in Myzus test (spray treatment)” value is given as “good activity”. In data set [3] (Phaedon cochleariae, 168 h, 4 g/ha, spray treatment, China cabbage slices, after 7 d, read-out: Death rate in % after 7d), the pest or weed control at 4 g/ha is 100%. In addition, in data set [3], the “activity in Phaedon test” value is “good activity”. Also, in data set [4], the pest or weed control at 4 g/ha stood at 100% and the “activity in Spodoptera frugiperda test” value is “good activity”. In data set [6] (100 ppm, cotton leaves immersed, after 7 d), the “Death rate in % after 7d” value was 80%. Moreover, the “activity in Aphis gossypii test” value in data set [6] (statement in words) is “good activity”.
With `Cc1nc(Cn2nc(C(F)(F)F)nc2C(F)(F)F)ccc1NC(=O)c1cccc(Cl)c1C(=O)N[C@@H](C)C[S+](C)[O-]` (stereo partly shown) [Example 15], the chromatographic logP in data set [1] was 2.17. For the same compound, in data set [2], the pest or weed control at 100 g/ha was determined as 100% and the “activity in Myzus test (spray treatment)” value is on record as “good activity”. Besides, the pest or weed control at 100 g/ha in data set [3] (setting [7]) came out at 100%. The “activity in Phaedon test” value in data set [3] is given as “good activity”. For the same compound, in data set [4], the pest or weed control at 4 g/ha came out at 100% and the “activity in Spodoptera frugiperda test” value is listed as “good activity”.
The compound `Cc1nc(Cn2nc(C(F)(F)C(F)(F)F)nc2C(F)(F)F)ncc1NC(=O)c1cccc(Cl)c1C(=O)N[C@@H](C)C[S+](C)[O-]` (stereo partly shown) [Example 29] displayed a chromatographic logP in data set [1] of 2.41. Besides, in data set [2], the pest or weed control at 100 g/ha was 100% and the “activity in Myzus test (spray treatment)” value was “good activity”. In data set [4], the pest or weed control at 4 g/ha was determined as 100% and the “activity in Spodoptera frugiperda test” value was “good activity”.
The compound `CSC[C@H](C)NC(=O)c1c(Cl)cccc1C(=O)Nc1cnc(Cn2nc(C(F)(F)C(F)(F)F)nc2C(F)(F)F)nc1C` [Example 30] displayed a chromatographic logP in data set [1] of 3.62. Besides, in data set [2], the pest or weed control at 100 g/ha turned out to be 90% and the “activity in Myzus test (spray treatment)” value is recorded as “good activity”. Besides, in data set [4], the pest or weed control at 4 g/ha was determined as 100% and the “activity in Spodoptera frugiperda test” value was “good activity”.
`CSC[C@H](C)NC(=O)c1c(Cl)cccc1C(=O)Nc1ccc(Cn2nc(C(F)(F)F)nc2C(F)(F)F)nc1C` [Example 14] came in with a chromatographic logP in data set [1] of 3.39. For the same compound, in data set [2], the pest or weed control at 100 g/ha was found to be 90% and the “activity in Myzus test (spray treatment)” value is given as “good activity”. Moreover, the pest or weed control at 100 g/ha in data set [3] (setting [7]) came to 90%. Also, the “activity in Phaedon test” value in data set [3] is on record as “good activity”. In data set [4], the pest or weed control at 4 g/ha was 100% and the “activity in Spodoptera frugiperda test” value is recorded as “good activity”.
As to `CSC[C@H](C)NC(=O)c1c(Br)cccc1C(=O)Nc1cnc(Cn2nc(C(F)(F)F)cc2C(F)(F)F)nc1C` [Example 18], in data set [1], the chromatographic logP worked out at 3.44. Further, in data set [2], the pest or weed control at 100 g/ha worked out at 100% and the “activity in Myzus test (spray treatment)” value is “good activity”. In data set [4], the pest or weed control at 4 g/ha stood at 100% and the “activity in Spodoptera frugiperda test” value is recorded as “good activity”.
